Measurements as given in US20220073495A1 (priority 2020, published 2022).
Where two headings read alike, the source gives them in different places.

Columns and labels:
A/WSN/33 = experiment: microbe, parasite or virus in culture; type: cell-based, influenza virus
A549 cells [1] = settings: human
in vitro = settings: human
viral M mRNA [2] = experiment: High-throughput smRNA-FISH screen for viral M mRNA processing and nuclear export; type: cell-based, influenza A/WSN/33 virus; settings: 2.5 μM, A/WSN/33
viral M mRNA [3] = experiment: smRNA-FISH of M mRNA in WSN-infected cells; type: cell-based, influenza virus (WSN); settings: 2.5 μM, WSN MOI 2 for 8 h
A549 cells [4] = experiment: MTT cytotoxicity assay; settings: 48 h, MTT, concentrations used for compound 2
[5] = unidentified influenza virus, WSN, A549, 24 h, read-out: WSN IC50, A549 cells, A/WSN/33 MOI 0.01, 24 h post infection, NP-positive cells
[6] = unidentified influenza virus, WSN, A549, 24 h, read-out: WSN IC90, A549 cells, A/WSN/33 MOI 0.01, 24 h post infection, NP-positive cells
[7] = read-out: WSN IC50, A549 cells, A/WSN/33 MOI 0.01, 24 h post infection, NP-positive cells
[8] = read-out: WSN IC90, A549 cells, A/WSN/33 MOI 0.01, 24 h post infection, NP-positive cells

Compound | IC50 (A/WSN/33; [5]) [µM] | IC90 (A/WSN/33; [6]) [µM] | 24 h MTT CC10 (A549 cells [1]) [µM] | CC50 (in vitro) [µM] | further results
Cc1ccc(NC(=O)CCC2=Nc3ccccc3C2)nc1 [Compound 16] | 30.9 | > 50 | 7.382 | – | CC50 (A549 cells [1]): > 50 µM
Brc1ccc(CSc2nc3ccccc3[nH]2)cc1 [Compound 17] | > 50 | > 50 | 19.818 | > 50 | –
CCn1c(SCC(=O)Nc2ccc(Br)cn2)nc2ccccc21 [Compound 18] | 38.4 | > 50 | 47.499 | > 50 | –
C=CCn1c(SCC(=O)Nc2ccc(Br)cn2)nc2ccccc21 [Compound 19] | > 50 | > 50 | 18.984 | > 50 | –
Cc1ccc(NC(=O)CSc2nc3ccccc3[nH]2)nc1 [Compound 20] | – | – | 7.855 | > 50 | IC50 (A/WSN/33; [7]): > 50 µM; IC90 (A/WSN/33; [8]): > 50 µM
COc1ccc(NC(=O)CSc2nc3ccccc3[nH]2)nc1 [Compound 21] | 17.6 | 45.4 | 4.69 | > 50 | –
O=C(CSc1nc2ccccc2[nH]1)Nc1ccc(F)cn1 [Compound 22] | 43.3 | > 50 | 31.688 | > 50 | –
Brc1ccc(CSc2nc3ccccc3[nH]2)nc1 [Compound 23] | > 50 | > 50 | 37.461 | > 50 | –
Cc1ccc(NC(=O)CSc2nc3ccccc3[nH]2)nc1 [Compound 24] | – | – | 5.552 | – | IC50 (A/WSN/33; [7]): 8.7 µM; IC90 (A/WSN/33; [8]): 24.5 µM; CC50 (A549 cells [1]): > 50 µM
Cc1ccc2[nH]c(SCC(=O)Nc3ccc(Br)cn3)nc2c1 [Compound 26] | 25.5 | > 50 | 6.797 | – | CC50 (A549 cells [1]): 49.7 µM
O=C(CSc1nc2cc(F)ccc2[nH]1)Nc1ccc(Br)cn1 [Compound 27] | 16.1 | 18.2 | 2.905 | > 50 | –
COc1ccc2[nH]c(SCC(=O)Nc3ccc(Br)cn3)nc2c1 [Compound 28] | 46.5 | 50 | 7.52 | > 50 | –
OC[C@H]1O[C@@H](n2cnc3cc(Cl)c(Cl)cc32)[C@H](O)[C@@H]1O [DRB, 5,6-dichloro-1-β-D-ribofuranosylbenzimidazole] | – | – | – | – | viral M mRNA nuclear retention (viral M mRNA [2]): positive control for viral M mRNA nuclear retention
COc1ccc(-n2c(SC(C)C(=O)Nc3ccc(C)cc3Cl)nc3ccccc32)cc1 (stereo not shown) [JMN3-003, reference compound] | – | – | – | – | nuclear export of viral M mRNA (viral M mRNA [3]): does not inhibit; total M mRNA fluorescence intensity (viral M mRNA [3]): decreased
ivermectin [reference compound] | – | – | – | – | cytotoxicity (cell viability) (A549 cells [4]): positive control for cytotoxicity
